Results taken from ChEMBL document CHEMBL5463729, “Data for DCP probe BAY 1753011” (2023).

Columns and labels:
[1] = biological target: Receptor tyrosine-protein kinase erbB-4 (Homo sapiens) (UniProt Q15303); assay: Inhibition of ErbB4(h) at 10.0 µM in the Eurofins Kinase panel; settings: Compound concentration 10.0 uM
[2] = biological target: D(2) dopamine receptor (Homo sapiens) (UniProt P14416); settings: Compound concentration 10.0 uM
[3] = biological target: Casein kinase II subunit alpha' (Homo sapiens) (UniProt P19784); assay: Inhibition of CK2alpha2(h) at 10.0 µM in the Eurofins Kinase panel; settings: Compound concentration 10.0 uM
[4] = biological target: CDK17/Cyclin-Y (Homo sapiens) (UniProt Q00537+Q8ND76); assay: Inhibition of CDK17/cyclinY(h) at 10.0 µM in the Eurofins Kinase panel; assay type: protein-complex assay; settings: Compound concentration 10.0 uM
[5] = biological target: Glutamate receptor 2 (Homo sapiens) (UniProt P42262); settings: Rattus norvegicus; Compound concentration 10.0 uM
[6] = biological target: [Pyruvate dehydrogenase (acetyl-transferring)] kinase isozyme 4, mitochondrial (Homo sapiens) (UniProt Q16654); assay: Inhibition of PDHK4(h) at 10.0 µM in the Eurofins Kinase panel; settings: Compound concentration 10.0 uM
[7] = biological target: Protein kinase C delta type (Homo sapiens) (UniProt Q05655); assay: Inhibition of PKCdelta(h) at 10.0 µM in the Eurofins Kinase panel; settings: Compound concentration 10.0 uM
[8] = biological target: Serine/threonine-protein kinase 35 (Homo sapiens) (UniProt Q8TDR2); assay: Inhibition of CLIK1(h) at 10.0 µM in the Eurofins Kinase panel; settings: Compound concentration 10.0 uM
[9] = biological target: Casein kinase I isoform gamma-3 (Homo sapiens) (UniProt Q9Y6M4); assay: Inhibition of CK1gamma3(h) at 10.0 µM in the Eurofins Kinase panel; settings: Compound concentration 10.0 uM
[10] = biological target: Activin receptor type-2A (Homo sapiens) (UniProt P27037); assay: Inhibition of ACTR2(h) at 10.0 µM in the Eurofins Kinase panel; settings: Compound concentration 10.0 uM
[11] = biological target: Ribosomal protein S6 kinase beta-2 (Homo sapiens) (UniProt Q9UBS0); assay: Inhibition of p70S6Kbeta(h) at 10.0 µM in the Eurofins Kinase panel; settings: Compound concentration 10.0 uM
[12] = biological target: Casein kinase I isoform alpha (Homo sapiens) (UniProt P48729); assay: Inhibition of CK1alpha(h) at 10.0 µM in the Eurofins Kinase panel; settings: Compound concentration 10.0 uM
[13] = biological target: T1, 5-hydroxytryptamine receptor 3A (Homo sapiens) (UniProt P46098); settings: Compound concentration 10.0 uM
T1 sequence (whole entry): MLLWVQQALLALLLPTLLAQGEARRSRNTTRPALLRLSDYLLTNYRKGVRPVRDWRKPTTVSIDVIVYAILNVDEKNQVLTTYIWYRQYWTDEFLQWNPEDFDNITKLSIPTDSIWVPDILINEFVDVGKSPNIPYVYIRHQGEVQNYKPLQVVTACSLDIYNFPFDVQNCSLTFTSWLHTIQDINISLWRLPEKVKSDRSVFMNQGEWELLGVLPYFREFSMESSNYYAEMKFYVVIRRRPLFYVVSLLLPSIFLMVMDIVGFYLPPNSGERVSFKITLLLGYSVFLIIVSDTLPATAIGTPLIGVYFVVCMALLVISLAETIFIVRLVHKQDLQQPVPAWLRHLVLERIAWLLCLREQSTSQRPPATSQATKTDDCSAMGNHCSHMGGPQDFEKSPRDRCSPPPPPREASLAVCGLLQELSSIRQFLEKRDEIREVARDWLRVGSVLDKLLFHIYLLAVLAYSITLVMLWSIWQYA

[14] = biological target: Receptor tyrosine-protein kinase erbB-2 (Homo sapiens) (UniProt P04626); assay: Inhibition of ErbB2(h) at 10.0 µM in the Eurofins Kinase panel; settings: Compound concentration 10.0 uM
[15] = biological target: Serine/threonine-protein kinase D1 (Homo sapiens) (UniProt Q15139); assay: Inhibition of PKCmu(h) at 10.0 µM in the Eurofins Kinase panel; settings: Compound concentration 10.0 uM
[16] = biological target: SRSF protein kinase 3 (Homo sapiens) (UniProt Q9UPE1); assay: Inhibition of MSSK1(h) at 10.0 µM in the Eurofins Kinase panel; settings: Compound concentration 10.0 uM
[17] = biological target: Mitogen-activated protein kinase kinase kinase 7 (Homo sapiens) (UniProt O43318); assay: Inhibition of TAK1(h) at 10.0 µM in the Eurofins Kinase panel; settings: Compound concentration 10.0 uM
[18] = biological target: Serine/threonine-protein kinase VRK2 (Homo sapiens) (UniProt Q86Y07); assay: Inhibition of VRK2(h) at 10.0 µM in the Eurofins Kinase panel; settings: Compound concentration 10.0 uM
[19] = biological target: Protein kinase C theta type (Homo sapiens) (UniProt Q04759); assay: Inhibition of PKCtheta(h) at 10.0 µM in the Eurofins Kinase panel; settings: Compound concentration 10.0 uM
[20] = biological target: Dual specificity mitogen-activated protein kinase kinase 1 (Homo sapiens) (UniProt Q02750); assay: Inhibition of MEK1(h) at 10.0 µM in the Eurofins Kinase panel; settings: Compound concentration 10.0 uM
[21] = biological target: Protein kinase C epsilon type (Homo sapiens) (UniProt Q02156); assay: Inhibition of PKCepsilon(h) at 10.0 µM in the Eurofins Kinase panel; settings: Compound concentration 10.0 uM
[22] = biological target: Protein kinase C beta type (Homo sapiens) (UniProt P05771); assay: Inhibition of PKCbetaII(h) at 10.0 µM in the Eurofins Kinase panel; settings: Compound concentration 10.0 uM
[23] = biological target: Serine/threonine-protein kinase PAK 2 (Homo sapiens) (UniProt Q13177); assay: Inhibition of PAK2(h) at 10.0 µM in the Eurofins Kinase panel; settings: Compound concentration 10.0 uM
[24] = biological target: D(2) dopamine receptor (Homo sapiens) (UniProt P14416); settings: Compound concentration 10.0 uM; remark: listed apart in the source
[25] = biological target: Phosphatidylinositol 4-phosphate 5-kinase type-1 alpha (Homo sapiens) (UniProt Q99755); assay: Inhibition of PIP5K1a(h) at 10.0 µM in the Eurofins Kinase panel; settings: Compound concentration 10.0 uM
[26] = biological target: Phosphorylase b kinase gamma catalytic chain, skeletal muscle/heart isoform (Homo sapiens) (UniProt Q16816); assay: Inhibition of PhKgamma1(h) at 10.0 µM in the Eurofins Kinase panel; settings: Compound concentration 10.0 uM
[27] = biological target: Casein kinase 2 (Homo sapiens) (UniProt P67870+P68400+P19784+Q8NEV1); assay: Inhibition of CK2(h) at 10.0 µM in the Eurofins Kinase panel; assay type: protein assay; settings: Compound concentration 10.0 uM
[28] = biological target: Dual specificity mitogen-activated protein kinase kinase 2 (Homo sapiens) (UniProt P36507); assay: Inhibition of MEK2(h) at 10.0 µM in the Eurofins Kinase panel; settings: Compound concentration 10.0 uM
[29] = biological target: Myotonin-protein kinase (Homo sapiens) (UniProt Q09013); assay: Inhibition of DMPK(h) at 10.0 µM in the Eurofins Kinase panel; settings: Compound concentration 10.0 uM
[30] = biological target: Serine/threonine-protein kinase Sgk3 (Homo sapiens) (UniProt Q96BR1); assay: Inhibition of SGK3(h) at 10.0 µM in the Eurofins Kinase panel; settings: Compound concentration 10.0 uM
[31] = biological target: Serine/threonine-protein kinase DCLK1 (Homo sapiens) (UniProt O15075); assay: Inhibition of DCAMKL1(h) at 10.0 µM in the Eurofins Kinase panel; settings: Compound concentration 10.0 uM
[32] = biological target: RAC-gamma serine/threonine-protein kinase (Homo sapiens) (UniProt Q9Y243); assay: Inhibition of PKBgamma(h) at 10.0 µM in the Eurofins Kinase panel; settings: Compound concentration 10.0 uM

Row | SMILES | inhibition [1] | inhibition [2] | inhibition [3] | inhibition [4] | inhibition [5] | inhibition [6] | inhibition [7] | inhibition [8] | inhibition [9] | inhibition [10] | inhibition [11] | inhibition [12] | inhibition [13] | inhibition [14] | inhibition [15] | inhibition [16] | inhibition [17] | inhibition [18] | inhibition [19] | inhibition [20] | further results
1 | O=c1n(Cc2cncn2-c2cccc(Cl)c2)nc(-c2ccc(Cl)cc2)n1C[C@H](O)C(F)(F)F | -8.65% | 16% | 6.42% | 3.78% | 3% | 5.68% | -4.61% | 7.34% | -8.47% | 6.32% | 3.66% | -1.11% | -2.44% | -4.27% | 5.31% | 9.31% | -1.55% | 10.4% | 14.5% | 4.57% | inhibition [21]: 11%; inhibition [22]: 4.87%; inhibition [23]: 1.99%; inhibition [24]: -8.61%; inhibition [25]: -4.61%; inhibition [26]: 7.19%; inhibition [27]: -3.37%; inhibition [28]: 6.76%; inhibition [29]: 4.48%; inhibition [30]: -5.09%; inhibition [31]: -2.6%; inhibition [32]: 2.13%
2 | C[C@H](O)c1nc(Cn2nc(-c3ccc(Cl)cc3)n(C[C@H](O)C(F)(F)F)c2=O)nn1-c1cccc(Cl)c1 [PECAVAPTAN] | -4.41% | 14% | -3.46% | 5.47% | 2% | 9.02% | 2.12% | 9.3% | -8.75% | 5.43% | 1.85% | -1.65% | -4.35% | -6.43% | -6.51% | -9.95% | -6.39% | 6.61% | 3.44% | -3.73% | inhibition [21]: 19.1%; inhibition [22]: 2.9%; inhibition [23]: 3.11%; inhibition [24]: -5.84%; inhibition [25]: -9.11%; inhibition [26]: -1.63%; inhibition [27]: 5.37%; inhibition [28]: 0.27%; inhibition [29]: 12.7%; inhibition [30]: -6.13%; inhibition [31]: -1.32%; inhibition [32]: -6.69%
